Results taken from US20120202794A1 (priority 2011, published 2012).

How the values were obtained:
HCV Replicon 1b = experiment: HCV inhibition assay, HCV replicon 1b (Clone A or ET-lunet cells; RT-PCR or luciferase reporter); assay type: cell-based; conditions: Hepatitis C virus, 96 h, HCV replicon 1b; 4 days incubation; read-out: Replicon 1b potency EC90
Description: HCV inhibition assay. Clone A or ET-lunet cells were seeded at a density of 1500 or 3000 cells per well in a 96-well plate, respectively. Test compounds serially diluted in culture medium without G418 were added to cells so that the final DMSO concentration was 0.5%. Plates were incubated at 37° C. in a 5% CO2 atmosphere for 4 days. Inhibition of HCV RNA replication was determined by real time PCR (RT-PCR) or by measuring the levels of luminescence expressed via the luciferase reporter gene encoded within the ET replicon. Briefly, for the RT-PCR assay, total RNA was extracted using the RNeasy-96 kit as recommended by the manufacturer (Qiagen, Valencia, Calif.), reversed transcribed into cDNA, and amplified using primer and probe mix for HCV 5′-NTR RNA and human ribosomal RNA (rRNA) in a one-step RT-PCR reaction as described previously (50). A relative quantification method was used to determine the extent of inhibition. The threshold cycle (Ct) of rRNA was subtracted from the Ct of HCV RNA (ΔCt). The average ΔCt of the DMSO cell controls was then subtracted from the ΔCt of the compound treated sample (ΔΔCt). Percent inhibition was determined by using the following equation: %=(1−(2^−ΔΔC^t))×100. For the luciferase-based replicon assay, luminescence was measured by using a Victor3 plate reader (Perkin-Elmer, Boston, Mass.) following the addition of Bright-Glo reagent as recommended by the manufacturer (Promega, Madison, Wis.). Percent inhibition of HCV replication was determined by comparing the change in luminescence of the drug treated wells versus the DMSO cell controls. EC50 and EC90 values, the concentrations at which 50% and 90% inhibition were achieved, were determined using the GraphPad Prism software (San Diego, Calif.).

[1] = Cell cytotoxicity assay (MTS), CC90 as reported in Table 1, cell line not stated; assay type: cell-based; conditions: human; cell line not given
Description: Cell cytotoxicity assays. Each compound (serially diluted from 100 μM) was added to Huh7 (2×10^3 cells/well), HepG2 (2×10^3 cells/well), BxPC3 (2×10^3 cells/well), or CEM (5×10^3 cells/well) cells and allowed to incubate for 8 days at 37° C. A medium only control was used to determine the minimum absorbance value […]. At the end of the growth period, MTS dye from the CellTiter 96 Aqueous One Solution Cell Proliferation Assay kit (Promega) was added to each well and the plate was incubated for an additional 2 hours. The absorbance at 490 nm was read with a Victor3 plate reader (Perkin Elmer) using the medium only control wells as blanks. The 90% inhibition value (CC90) was determined by comparing the absorbance in wells containing cells and test compound to untreated cell control wells.

SMILES	EC90 (HCV Replicon 1b)	CC90 at 8 days [1]
CC(C)C[C@H]1CN(C(=O)c2cc(-c3ccccc3)on2)[C@@H](CC(C)C)C(=O)N1 [Compound 108]	0.52 µM	> 10 µM
CC(C)C[C@H]1CN(C(=O)c2cc(-c3cccs3)on2)[C@@H](CC(C)C)C(=O)N1 [Compound 109]	0.54 µM	> 10 µM
CC(C)C[C@H]1C(=O)N[C@@H](c2ccccc2)CN1C(=O)c1cc(-c2cccs2)on1 [Compound 110]	0.59 µM	> 10 µM
CC(C)C[C@H]1C(=O)N[C@@H](C(C)C)CN1C(=O)c1cc(-c2cccs2)on1 [Compound 111]	0.8 µM	> 10 µM
CC(C)C[C@H]1CN(C(=O)c2cc(-c3ccc(Cl)s3)on2)[C@@H](CC(C)C)C(=O)N1 [Compound 112]	0.95 µM	> 10 µM
CC(C)C[C@H]1CN(C(=O)C#Cc2ccc(F)cc2)[C@@H](CC(C)C)C(=O)N1 [Compound 113]	3.4 µM	> 10 µM
CC(C)C[C@H]1CN(C(=O)C#Cc2ccccc2)[C@@H](CC(C)C)C(=O)N1 [Compound 114]	4.08 µM	> 10 µM
Cc1ccc(C#CC(=O)N2C[C@H](CC(C)C)NC(=O)[C@@H]2CC(C)C)cc1 [Compound 115]	5.01 µM	> 10 µM
CC(C)C[C@H]1CN(C(=O)C#Cc2ccc(F)c(F)c2)[C@@H](CC(C)C)C(=O)N1 [Compound 116]	9.65 µM	> 10 µM
CC(C)C[C@H]1CN(C(=O)C#Cc2ccc(F)cc2F)[C@@H](CC(C)C)C(=O)N1 [Compound 117]	2.66 µM	> 10 µM
COc1ccc(C#CC(=O)N2C[C@H](CC(C)C)NC(=O)[C@@H]2CC(C)C)cc1 [Compound 118]	2.96 µM	> 10 µM
CC(C)C[C@H]1CN(C(=O)C#Cc2ccc(Cl)cc2F)[C@@H](CC(C)C)C(=O)N1 [Compound 119]	6.2 µM	> 10 µM
CC(C)C[C@H]1CN(C(=O)C#Cc2ccc(Cl)cc2)[C@@H](CC(C)C)C(=O)N1 [Compound 120]	9.16 µM	> 10 µM
CC(C)C[C@H]1CN(C(=O)C#Cc2cc(F)c(F)c(F)c2)[C@@H](CC(C)C)C(=O)N1 [Compound 121]	3.23 µM	> 10 µM
CC(C)C[C@H]1CN(C(=O)C#Cc2ccc(C(F)(F)F)cc2)[C@@H](CC(C)C)C(=O)N1 [Compound 122]	7.54 µM	> 10 µM
CC(C)C[C@H]1CN(C(=O)c2cc(-c3ccc(F)c(F)c3)on2)[C@@H](CC(C)C)C(=O)N1 [Compound 123]	0.97 µM	> 10 µM
CC(C)C[C@H]1CN(C(=O)c2cc(-c3ccc(F)cc3)on2)[C@@H](CC(C)C)C(=O)N1 [Compound 124]	0.11 µM	> 10 µM
CC(C)C[C@H]1CN(C(=O)c2cc(-c3ccc(Cl)cc3)on2)[C@@H](CC(C)C)C(=O)N1 [Compound 125]	0.26 µM	> 10 µM
Cc1ccc(-c2cc(C(=O)N3C[C@H](CC(C)C)NC(=O)[C@@H]3CC(C)C)no2)cc1 [Compound 126]	1.66 µM	> 10 µM
COc1ccc(-c2cc(C(=O)N3C[C@H](CC(C)C)NC(=O)[C@@H]3CC(C)C)no2)cc1 [Compound 127]	1.14 µM	> 10 µM
CC(C)C[C@H]1CN(C(=O)c2cc(-c3cccc(F)c3)on2)[C@@H](CC(C)C)C(=O)N1 [Compound 128]	0.84 µM	> 10 µM
CC(C)C[C@H]1CN(C(=O)c2cc(-c3cccc(Cl)c3)on2)[C@@H](CC(C)C)C(=O)N1 [Compound 129]	2.93 µM	> 10 µM
COc1cccc(-c2cc(C(=O)N3C[C@H](CC(C)C)NC(=O)[C@@H]3CC(C)C)no2)c1 [Compound 130]	5.75 µM	> 10 µM
COc1ccccc1-c1cc(C(=O)N2C[C@H](CC(C)C)NC(=O)[C@@H]2CC(C)C)no1 [Compound 131]	3.49 µM	> 10 µM
CC(C)C[C@H]1CN(C(=O)c2cc(-c3ccc(C(C)(C)C)cc3)on2)[C@@H](CC(C)C)C(=O)N1 [Compound 132]	4.33 µM	> 10 µM

SMILES	EC90 (HCV Replicon 1b)	CC90 at 8 days [1]
CC(C)C[C@H]1CN(C(=O)c2cc(-c3ccc(F)cc3F)on2)[C@@H](CC(C)C)C(=O)N1 [Compound 133]	0.6 µM	> 10 µM
CC(C)C[C@H]1CN(C(=O)c2cc(-c3ccc(Cl)c(F)c3)on2)[C@@H](CC(C)C)C(=O)N1 [Compound 134]	0.89 µM	> 10 µM
CC(C)C[C@H]1CN(C(=O)c2cc(-c3ccc(Br)cc3)on2)[C@@H](CC(C)C)C(=O)N1 [Compound 135]	0.47 µM	> 10 µM
CC(C)C[C@H]1CN(C(=O)c2cc(-c3ccc(C#N)cc3)on2)[C@@H](CC(C)C)C(=O)N1 [Compound 136]	1.53 µM	> 10 µM
CC(C)C[C@H]1C(=O)N[C@@H](C2CCCC2)CN1C(=O)c1cc(-c2ccc(C#N)cc2)on1 [Compound 137]	0.8 µM	> 10 µM
CC(C)C[C@H]1CN(C(=O)c2cc(-c3cccc(OC(F)(F)F)c3)on2)[C@@H](CC(C)C)C(=O)N1 [Compound 138]	7.04 µM	> 10 µM
CC(C)C[C@H]1CN(C(=O)c2cc(-c3ccc(C(=O)N(C)C)cc3)on2)[C@@H](CC(C)C)C(=O)N1 [Compound 139]	> 10 µM	> 10 µM
CC(C)C[C@H]1CN(C(=O)c2cc(-c3ccc(N(C)C)cc3)on2)[C@@H](CC(C)C)C(=O)N1 [Compound 140]	> 10 µM	> 10 µM
CC(C)C[C@H]1CN(C(=O)c2cc(-c3ccc(F)c(Cl)c3)on2)[C@@H](CC(C)C)C(=O)N1 [Compound 141]	1.78 µM	> 10 µM
CC(C)C[C@H]1CN(C(=O)c2cc(-c3ccccc3F)on2)[C@@H](CC(C)C)C(=O)N1 [Compound 142]	2.01 µM	> 10 µM
CC(C)C[C@H]1CN(C(=O)c2cc(-c3ccc(Cl)cc3F)on2)[C@@H](CC(C)C)C(=O)N1 [Compound 143]	1.21 µM	> 10 µM
CC(C)C[C@H]1CN(C(=O)c2cc(-c3ccc(F)cc3)no2)[C@@H](CC(C)C)C(=O)N1 [Compound 144]	0.33 µM	> 10 µM
CC(C)C[C@H]1C(=O)N[C@@H](c2ccccc2)CN1C(=O)c1cc(-c2ccc(F)cc2)no1 [Compound 145]	0.23 µM	> 10 µM
CC(C)C[C@H]1C(=O)N[C@@H](C(C)C)CN1C(=O)c1cc(-c2ccc(F)cc2)no1 [Compound 146]	0.73 µM	> 10 µM
CSC[C@H]1CN(C(=O)c2cc(-c3ccc(F)cc3)no2)[C@@H](CC(C)C)C(=O)N1 [Compound 147]	1.27 µM	> 10 µM
CC(C)C[C@H]1CN(C(=O)c2nc(-c3ccc(F)cc3)no2)[C@@H](CC(C)C)C(=O)N1 [Compound 148]	0.37 µM	> 10 µM
CCC[C@H]1CN(C(=O)c2nc(-c3ccc(F)cc3)no2)[C@@H](CC(C)C)C(=O)N1 [Compound 149]	0.05 µM	> 10 µM
CCC[C@H]1CN(C(=O)c2nc(-c3ccccc3)no2)[C@@H](CC(C)C)C(=O)N1 [Compound 150]	0.59 µM	> 10 µM
CC(C)C[C@H]1C(=O)N[C@@H](c2ccccc2)CN1C(=O)c1nc(-c2ccc(F)cc2)no1 [Compound 151]	0.04 µM	> 10 µM
CC(C)C[C@H]1C(=O)N[C@@H](C2CCCC2)CN1C(=O)c1nc(-c2ccc(F)cc2)no1 [Compound 152]	0.11 µM	> 10 µM
CC(C)C[C@H]1C(=O)N[C@@H](C(C)C)CN1C(=O)c1nc(-c2ccc(F)cc2)no1 [Compound 153]	0.22 µM	> 10 µM
CSC[C@H]1CN(C(=O)c2nc(-c3ccc(F)cc3)no2)[C@@H](CC(C)C)C(=O)N1 [Compound 154]	0.78 µM	> 10 µM
CC(C)C[C@H]1CN(C(=O)c2cc(-c3ccc([N+](=O)[O-])cc3)on2)[C@@H](CC(C)C)C(=O)N1 [Compound 155]	2.6 µM	> 10 µM
CC(C)C[C@H]1C(=O)N[C@@H](C2CCCCC2)CN1C(=O)c1cc(-c2ccc(F)cc2F)on1 [Compound 156]	1.15 µM	> 10 µM
CC(C)C[C@H]1C(=O)N[C@@H](C2CCCC2)CN1C(=O)c1cc(-c2ccc(F)cc2F)on1 [Compound 157]	0.49 µM	> 10 µM
